Active and inactive are the calls of the source. The rule behind the calls is not given here.
Experiments:
[1] = target: T1, Metabotropic glutamate receptor 7 (Homo sapiens, UniProt Q14831); assay: Agonist activity at human mGluR7 expressed in CHO cells expressing CRE-Luc reporter gene assessed as reduction in forskolin-stimulated cAMP production by measuring maximum efficacy preincubated for 15 mins followed by forskolin stimulation and measured after 5 hrs by luminescence based Steady glo assay relative to control; format: cell-based; settings: filed as agonist, time 315.0 min
[2] = Stability in human liver microsomes assessed as intrinsic clearance preincubated for 60 mins followed by NADPH addition and measured upto 60 mins by LC-MS/MS analysis; format: ADME, Microsome; settings: time < 120 min, read-out: CLH
[3] = Stability in rat liver microsomes assessed as intrinsic clearance preincubated for 60 mins followed by NADPH addition and measured upto 60 mins by LC-MS/MS analysis; format: ADME, Microsome; settings: time < 120 min, read-out: CLH
[4] = target: T1, Metabotropic glutamate receptor 7; assay: Competitive binding affinity to mGluR7 (unknown origin) assessed as rightward shift in forskolin-induced cAMP production level by measuring fold change preincubated for 15 mins in the presence of LY341495 followed by forskolin stimulation and measured after 5 hrs by luminescence based steady glo assay; settings: filed as agonist, time 315.0 min
[5] = target: T1, Metabotropic glutamate receptor 7; assay: Agonist activity at human mGluR7 expressed in CHO cells expressing CRE-Luc reporter gene assessed as reduction in forskolin-stimulated cAMP production preincubated for 15 mins followed by forskolin stimulation and measured after 5 hrs by luminescence based Steady glo assay; format: cell-based
[6] = target: T1, Metabotropic glutamate receptor 7; assay: (§1) Positive allosteric modulation of mGluR7 (unknown origin) assessed as change in forskolin-induced cAMP production by measuring reduction in maximum response preincubated with compound for 15 mins in the presence of LY341495 followed by forskolin stimulation and measured after 5 hrs by luminescence based steady glo assay; design: scale not given: the % may be the effect or the level left; settings: filed as positive allosteric modulator, time 315.0 min
[7] = target: T1, Metabotropic glutamate receptor 7; assay: as §1, with “fold change” for “reduction”, “EC50 shift” for “maximum response”; settings: filed as positive allosteric modulator, time 315.0 min
[8] = Stability in cryopreserved rat hepatocytes assessed as clearance measured for 120 mins by LC-MS/MS analysis; format: ADME, cell-based, Hepatocyte; settings: read-out: CLH
[9] = Unbound fraction in rat plasma incubated for 6 hrs by LC-MS/MS based rapid equilibrium dialysis; format: ADME, cell-free
[10] = Unbound fraction in rat brain incubated for 6 hrs by LC-MS/MS based rapid equilibrium dialysis; format: ADME, tissue-based
[11] = Apparent permeability from apical to basolateral side in MDCK-MDR1 cells; format: ADME, cell-based, Canis lupus familiaris; settings: dog
[12] = Efflux ratio of apparent permeability in MDCK-MDR1 cells; format: ADME, cell-based, Canis lupus familiaris; settings: dog
[13] = Volume of distribution at steady state in Sprague-Dawley rat at 0.5 mg/kg, iv measured after 24 hrs by LC-MS/MS analysis; format: ADME, organism-based; settings: in vivo
[14] = Oral bioavailability in Sprague-Dawley rat at 3 mg/kg measured after 24 hrs by LC-MS/MS analysis; format: ADME, organism-based; settings: in vivo
[15] = Cmax in Sprague-Dawley rat at 3 mg/kg, po measured after 24 hrs by LC-MS/MS analysis; format: ADME, organism-based; design: dose 3 mg/kg, time 24 hrs, route po; settings: in vivo
[16] = Tmax in Sprague-Dawley rat at 3 mg/kg, po measured after 24 hrs by LC-MS/MS analysis; format: ADME, organism-based; settings: in vivo
[17] = Half-life in Sprague-Dawley rat at 3 mg/kg, po measured after 24 hrs by LC-MS/MS analysis; format: ADME, organism-based; settings: in vivo
[18] = AUC(0 to infinity) in Sprague-Dawley rat at 3 mg/kg, po measured after 24 hrs by LC-MS/MS analysis; format: ADME, organism-based; design: time 24 hrs, dose 3 mg/kg, route po; settings: in vivo
[19] = Ratio of drug concentration in Sprague-Dawley rat brain to plasma at 3 mg/kg, po measured after 4 hrs by LC-MS/MS analysis; format: ADME, organism-based
[20] = Ratio of unbound brain to plasma concentration in Sprague-Dawley rat at 3 mg/kg, po measured after 4 hrs by LC-MS/MS analysis; format: ADME, organism-based
[21] = target: Metabotropic glutamate receptor 4 (Homo sapiens) (UniProt Q14833); assay: Agonist activity at human mGluR4 expressed in CHO cells assessed as reduction in forskolin-induced cAMP production incubated for 1 hrs by HTRF analysis; format: cell-based
[22] = target: Metabotropic glutamate receptor 2 (Homo sapiens) (UniProt Q14416); assay: Agonist activity at mGluR2 (unknown origin) at 1 to 10 uM by cAMP assay; settings: dose 1-10 µM
[23] = target: Metabotropic glutamate receptor 6 (Homo sapiens) (UniProt O15303); assay: Agonist activity at mGluR6 (unknown origin) at 1 to 10 uM by cAMP assay; settings: dose 1-10 µM
[24] = target: Metabotropic glutamate receptor 8 (Homo sapiens) (UniProt O00222); assay: Agonist activity at human mGluR8 expressed in CHO cells assessed as reduction in forskolin-induced cAMP production incubated for 1 hrs by HTRF analysis; format: cell-based
[25] = target: Metabotropic glutamate receptor 1 (Homo sapiens) (UniProt Q13255); assay: Agonist activity at mGluR1 (unknown origin) at 1 to 10 uM by Galphaqi5 calcium flux assay; settings: dose 1-10 µM
[26] = target: Metabotropic glutamate receptor 3 (Homo sapiens) (UniProt Q14832); assay: Agonist activity at mGluR3 (unknown origin) at 1 to 10 uM by Galphaqi5 calcium flux assay; settings: dose 1-10 µM
[27] = target: Metabotropic glutamate receptor 5 (Homo sapiens) (UniProt P41594); assay: Agonist activity at mGluR5 (unknown origin) at 1 to 10 uM by Galphaqi5 calcium flux assay; settings: dose 1-10 µM
[28] = target: Metabotropic glutamate receptor 7 (Mus musculus, UniProt Q68ED2); assay: Agonist activity at mouse mGluR7 expressed in CHO cells expressing CRE-Luc reporter gene assessed as reduction in forskolin-stimulated cAMP production preincubated for 15 mins followed by forskolin stimulation and measured after 5 hrs by luminescence based Steady glo assay; format: cell-based
[29] = target: T1, Metabotropic glutamate receptor 7; assay: Agonist activity at human mGluR7 expressed in CHO cells assessed as change in extracellular impedance incubated for 40 mins by CellKey impedance assay; format: cell-based; settings: filed as agonist
[30] = target: T1, Metabotropic glutamate receptor 7; assay: Desensitization at human mGluR7 expressed in CHO cells assessed as reduction in tool agonist response at EC80 concentration preincubated for 1 hrs followed by compound replacement with assay buffer and measured 1 hrs after tool agonist addition by CellKey impedance assay relative to control; format: cell-based
[31] = target: T1, Metabotropic glutamate receptor 7; assay: Allosteric agonist activity at mGluR7 (unknown origin) assessed as reduction in forskolin-induced cAMP production by measuring fold change in EC50 preincubated for 15 mins in the presence of LY341495 followed by forskolin stimulation and measured after 5 hrs by luminescence based steady glo assay; settings: filed as agonist, time 315.0 min
Rattus norvegicus [32] = assay: In vivo agonist activity in po dosed alcohol preferring Marchigian-Sardinian rat assessed as reduction in alcohol self-administration measured after 1 hrs; format: functional, organism-based; settings: dose 0.3-3 mg/kg
Rattus norvegicus [33] = assay: In vivo agonist activity in alcohol preferring Marchigian-Sardinian rat assessed as reduction in alcohol self-administration at 3 mg/kg, po administered for 1 hrs relative to control; format: functional; design: scale not given: the % may be the effect or the level left
Rattus norvegicus [34] = assay: In vivo agonist activity in alcohol preferring Marchigian-Sardinian rat assessed as reduction in alcohol self-administration by measuring number of response at 3 mg/kg, po administered for 1 hrs; format: functional
[35] = target: T1, Metabotropic glutamate receptor 7; assay: Agonist activity at human mGluR7b expressed in CHO cells assessed as inhibition of forskolin-stimulated cAMP accumulation; format: cell-based
[36] = target: Sodium-dependent noradrenaline transporter (Homo sapiens) (UniProt P23975); assay: Binding affinity to human norepinephrine transporter at 10 uM
[37] = target: Histamine H1 receptor (Homo sapiens) (UniProt P35367); assay: Binding affinity to human H1 receptor at 10 uM
[38] = target: Adrenergic receptor alpha-1 (Rattus norvegicus) (UniProt P15823+P23944+P43140); assay: Binding affinity to rat alpha 1 adrenergic receptor at 10 uM; format: protein assay
[39] = target: T1, Metabotropic glutamate receptor 7; assay: Desensitization at human mGluR7 expressed in CHO cells assessed as reduction in tool agonist response at 10 uM preincubated for 1 hrs followed by compound replacement with assay buffer and measured 1 hrs after tool agonist addition by CellKey impedance assay relative to control; format: cell-based; design: scale not given: the % may be the effect or the level left

T1 sequence (Q14831 whole entry): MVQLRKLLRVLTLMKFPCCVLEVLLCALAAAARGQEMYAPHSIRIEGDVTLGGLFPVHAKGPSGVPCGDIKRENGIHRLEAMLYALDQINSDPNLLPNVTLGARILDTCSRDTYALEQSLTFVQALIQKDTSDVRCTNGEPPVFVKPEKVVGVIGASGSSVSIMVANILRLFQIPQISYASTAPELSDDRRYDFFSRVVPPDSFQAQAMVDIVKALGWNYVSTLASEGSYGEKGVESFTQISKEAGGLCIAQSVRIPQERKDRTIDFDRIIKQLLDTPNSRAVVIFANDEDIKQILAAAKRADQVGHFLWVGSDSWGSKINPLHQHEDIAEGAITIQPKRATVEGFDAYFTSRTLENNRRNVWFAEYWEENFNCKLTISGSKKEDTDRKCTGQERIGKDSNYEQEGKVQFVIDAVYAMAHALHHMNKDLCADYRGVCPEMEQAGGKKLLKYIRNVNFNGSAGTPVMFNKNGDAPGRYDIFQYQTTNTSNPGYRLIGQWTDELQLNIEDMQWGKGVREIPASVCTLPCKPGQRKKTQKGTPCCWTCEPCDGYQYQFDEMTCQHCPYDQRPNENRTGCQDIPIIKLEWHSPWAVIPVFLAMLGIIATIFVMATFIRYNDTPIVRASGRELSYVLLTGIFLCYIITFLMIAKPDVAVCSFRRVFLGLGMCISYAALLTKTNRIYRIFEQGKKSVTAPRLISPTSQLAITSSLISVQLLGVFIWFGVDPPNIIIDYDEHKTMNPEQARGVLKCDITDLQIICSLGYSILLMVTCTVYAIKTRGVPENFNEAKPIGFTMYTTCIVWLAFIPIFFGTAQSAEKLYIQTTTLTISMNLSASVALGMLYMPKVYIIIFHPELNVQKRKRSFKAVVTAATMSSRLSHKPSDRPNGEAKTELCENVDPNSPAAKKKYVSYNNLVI
Sequence of Metabotropic glutamate receptor 6 (Homo sapiens) (O15303 whole entry): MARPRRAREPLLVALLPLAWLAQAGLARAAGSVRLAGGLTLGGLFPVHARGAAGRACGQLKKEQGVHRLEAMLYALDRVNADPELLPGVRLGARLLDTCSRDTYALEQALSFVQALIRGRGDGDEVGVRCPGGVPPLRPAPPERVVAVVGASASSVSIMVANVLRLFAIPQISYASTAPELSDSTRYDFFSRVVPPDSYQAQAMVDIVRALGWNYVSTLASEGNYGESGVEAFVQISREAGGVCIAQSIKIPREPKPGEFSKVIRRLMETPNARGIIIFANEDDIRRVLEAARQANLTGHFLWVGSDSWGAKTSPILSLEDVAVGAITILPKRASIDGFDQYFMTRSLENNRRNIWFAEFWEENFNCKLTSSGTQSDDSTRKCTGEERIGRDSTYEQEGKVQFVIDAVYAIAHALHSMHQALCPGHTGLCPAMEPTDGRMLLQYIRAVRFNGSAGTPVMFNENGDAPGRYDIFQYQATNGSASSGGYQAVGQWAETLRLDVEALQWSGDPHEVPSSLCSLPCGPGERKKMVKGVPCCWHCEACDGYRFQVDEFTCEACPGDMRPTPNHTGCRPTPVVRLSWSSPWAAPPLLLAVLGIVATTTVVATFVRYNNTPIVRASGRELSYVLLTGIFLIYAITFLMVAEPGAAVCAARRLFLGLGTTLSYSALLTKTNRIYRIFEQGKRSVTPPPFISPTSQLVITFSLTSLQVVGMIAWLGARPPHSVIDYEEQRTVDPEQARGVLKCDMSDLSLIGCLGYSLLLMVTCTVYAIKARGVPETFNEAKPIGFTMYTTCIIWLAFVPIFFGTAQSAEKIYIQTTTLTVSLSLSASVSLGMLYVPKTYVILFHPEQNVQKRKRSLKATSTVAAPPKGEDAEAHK
Sequence of Metabotropic glutamate receptor 1 (Homo sapiens) (Q13255 19-1194 limits assumed): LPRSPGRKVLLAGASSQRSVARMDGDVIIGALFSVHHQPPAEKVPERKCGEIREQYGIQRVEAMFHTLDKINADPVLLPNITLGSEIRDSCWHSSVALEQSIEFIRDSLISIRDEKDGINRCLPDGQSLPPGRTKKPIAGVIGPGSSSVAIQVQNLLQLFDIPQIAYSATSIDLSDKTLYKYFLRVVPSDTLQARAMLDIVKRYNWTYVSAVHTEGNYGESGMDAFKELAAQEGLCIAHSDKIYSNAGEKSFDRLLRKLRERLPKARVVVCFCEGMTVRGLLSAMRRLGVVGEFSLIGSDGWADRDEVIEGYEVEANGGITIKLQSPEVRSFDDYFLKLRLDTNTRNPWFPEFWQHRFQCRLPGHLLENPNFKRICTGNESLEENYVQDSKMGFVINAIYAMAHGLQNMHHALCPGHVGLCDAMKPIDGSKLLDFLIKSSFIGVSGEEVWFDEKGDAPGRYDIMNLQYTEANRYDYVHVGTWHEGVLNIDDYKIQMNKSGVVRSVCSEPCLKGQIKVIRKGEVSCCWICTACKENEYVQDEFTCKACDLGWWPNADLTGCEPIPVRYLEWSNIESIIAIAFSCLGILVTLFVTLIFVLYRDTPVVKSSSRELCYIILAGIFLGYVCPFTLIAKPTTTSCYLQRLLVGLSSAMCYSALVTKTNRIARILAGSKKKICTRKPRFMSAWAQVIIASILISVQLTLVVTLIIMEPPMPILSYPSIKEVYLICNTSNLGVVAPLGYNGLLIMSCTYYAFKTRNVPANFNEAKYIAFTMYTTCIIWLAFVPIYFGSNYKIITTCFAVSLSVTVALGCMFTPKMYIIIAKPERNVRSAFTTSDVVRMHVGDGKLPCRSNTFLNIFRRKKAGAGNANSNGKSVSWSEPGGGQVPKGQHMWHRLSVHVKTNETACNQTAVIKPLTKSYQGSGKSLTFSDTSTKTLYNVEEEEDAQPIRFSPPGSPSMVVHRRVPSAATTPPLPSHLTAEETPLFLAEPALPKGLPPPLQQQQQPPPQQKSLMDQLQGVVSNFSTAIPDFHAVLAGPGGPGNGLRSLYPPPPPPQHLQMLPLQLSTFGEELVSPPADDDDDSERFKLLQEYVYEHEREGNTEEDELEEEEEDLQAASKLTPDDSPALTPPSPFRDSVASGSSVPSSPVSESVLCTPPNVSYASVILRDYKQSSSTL
Sequence of Histamine H1 receptor (Homo sapiens) (P35367 whole entry): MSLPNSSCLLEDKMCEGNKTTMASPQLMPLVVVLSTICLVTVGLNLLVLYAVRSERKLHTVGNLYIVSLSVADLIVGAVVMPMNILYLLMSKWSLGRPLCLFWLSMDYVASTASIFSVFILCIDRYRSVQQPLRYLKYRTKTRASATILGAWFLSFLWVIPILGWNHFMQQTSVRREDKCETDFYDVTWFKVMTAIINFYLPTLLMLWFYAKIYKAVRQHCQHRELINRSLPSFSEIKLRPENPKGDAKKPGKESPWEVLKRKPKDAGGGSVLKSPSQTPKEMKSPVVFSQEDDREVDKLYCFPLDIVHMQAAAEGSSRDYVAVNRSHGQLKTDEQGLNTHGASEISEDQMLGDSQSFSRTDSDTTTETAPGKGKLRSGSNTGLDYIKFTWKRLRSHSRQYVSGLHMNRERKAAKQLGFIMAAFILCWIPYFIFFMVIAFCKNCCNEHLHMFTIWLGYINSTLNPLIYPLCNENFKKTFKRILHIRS
Sequence of Sodium-dependent noradrenaline transporter (Homo sapiens) (P23975 whole entry): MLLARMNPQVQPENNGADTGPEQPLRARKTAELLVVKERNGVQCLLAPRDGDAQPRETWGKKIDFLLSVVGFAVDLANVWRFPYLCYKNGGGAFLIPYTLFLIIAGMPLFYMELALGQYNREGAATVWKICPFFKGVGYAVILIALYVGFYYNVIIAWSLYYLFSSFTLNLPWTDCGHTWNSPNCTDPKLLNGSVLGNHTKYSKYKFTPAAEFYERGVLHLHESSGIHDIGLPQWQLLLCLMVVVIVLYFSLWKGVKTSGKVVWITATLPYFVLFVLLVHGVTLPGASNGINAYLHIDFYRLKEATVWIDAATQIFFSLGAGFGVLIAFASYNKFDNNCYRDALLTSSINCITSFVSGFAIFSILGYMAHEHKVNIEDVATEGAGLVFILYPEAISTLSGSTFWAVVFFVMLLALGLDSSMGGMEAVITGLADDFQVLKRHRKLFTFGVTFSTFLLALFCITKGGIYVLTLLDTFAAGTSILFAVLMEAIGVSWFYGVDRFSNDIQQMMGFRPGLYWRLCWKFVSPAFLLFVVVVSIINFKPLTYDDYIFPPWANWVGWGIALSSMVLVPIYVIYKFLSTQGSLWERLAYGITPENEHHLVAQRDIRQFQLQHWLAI
Sequence of Metabotropic glutamate receptor 2 (Homo sapiens) (Q14416 19-872 limits assumed): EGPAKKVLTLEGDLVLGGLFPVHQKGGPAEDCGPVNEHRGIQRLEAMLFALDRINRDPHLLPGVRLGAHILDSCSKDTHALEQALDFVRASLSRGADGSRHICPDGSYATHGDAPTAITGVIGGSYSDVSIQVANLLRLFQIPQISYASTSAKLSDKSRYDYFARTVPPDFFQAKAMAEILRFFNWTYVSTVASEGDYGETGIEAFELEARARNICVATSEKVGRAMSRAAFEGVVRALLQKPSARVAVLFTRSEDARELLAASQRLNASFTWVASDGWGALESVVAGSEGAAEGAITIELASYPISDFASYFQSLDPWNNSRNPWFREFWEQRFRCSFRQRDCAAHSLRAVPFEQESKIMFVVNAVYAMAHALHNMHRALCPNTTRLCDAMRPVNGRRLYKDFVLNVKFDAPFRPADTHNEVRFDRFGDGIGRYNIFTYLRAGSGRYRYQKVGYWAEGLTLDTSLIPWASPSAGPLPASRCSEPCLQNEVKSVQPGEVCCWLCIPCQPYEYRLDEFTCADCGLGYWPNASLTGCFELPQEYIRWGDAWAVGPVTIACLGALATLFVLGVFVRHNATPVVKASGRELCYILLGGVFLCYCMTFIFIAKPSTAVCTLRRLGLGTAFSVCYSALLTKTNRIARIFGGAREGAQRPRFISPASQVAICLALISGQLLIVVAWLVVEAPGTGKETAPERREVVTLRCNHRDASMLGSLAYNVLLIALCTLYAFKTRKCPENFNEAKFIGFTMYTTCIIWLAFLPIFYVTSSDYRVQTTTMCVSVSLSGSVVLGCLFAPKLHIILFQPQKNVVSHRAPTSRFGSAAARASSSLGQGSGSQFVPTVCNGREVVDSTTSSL
Sequence of Metabotropic glutamate receptor 7 (Mus musculus, UniProt Q68ED2) (Q68ED2 whole entry): as the sequence (Q14831 whole entry) above, with R5G, A27V, S488T, A520P, D578N counted along it

C[C@H](C(=O)N[C@@H]1CCc2ccccc2[C@H]1S(C)(=O)=O)c1ccc(F)cc1
Emax [1]: 95%
microsomal CLint [2]: 2 µL/min/mg
microsomal CLint [3]: 55 µL/min/mg

N[C@@H](CCP(=O)(O)O)C(=O)O
fold change (FC) [4]: 13

C[C@H](C(=O)NC1Cc2ccccc2C1)c1ccccc1
EC50 [5]: 113 nM
Emax [1]: 95%

O=C(Nc1ccc(Oc2ccc(Cl)cn2)c(Cl)c1)c1ccccn1
Activity [6]: 43%
fold change (FC) [7]: 2

C[C@H](C(=O)NC1Cc2ccccc2C1)c1ccc(F)cc1
EC50 [5]: 55 nM
Emax [1]: 96%

C[C@H](C(=O)N[C@H]1COc2ccccc2[C@@H]1S(C)(=O)=O)c1ccc(F)cc1
EC50 [5]: 7 nM
Emax [1]: 97%
CLint scaled [8]: 145 mL/min/kg
Fu [9]: 0.283
Fu [10]: 0.227
Papp [11]: 16.2 ×10⁻⁶ cm/s
Ratio [12]: 0.5
Vdss [13]: 1.49 L/kg
F [14]: 24%
Cmax [15]: 1240 nM
Tmax [16]: 0.67 h
t1/2 [17]: 2.25 h
AUC [18]: 1404 ng·h/mL
BPR [19]: 0.56
K(p,uu,brain) [20]: 0.45
Activity [21]: inactive
Activity [22]: inactive
Activity [23]: inactive
Activity [24]: inactive
Activity [25]: inactive
Activity [26]: inactive
Activity [27]: inactive
EC50 [28]: 2 nM
Activity [29]: Active
Activity [30]: inactive
fold change (FC) [31]: 2
Activity (Rattus norvegicus [32]): Dose-Dependent Effect
Activity (Rattus norvegicus [33]): 25%
Activity (Rattus norvegicus [34]): 40.9

N[C@@H](CCC(=O)O)C(=O)O
Activity [29]: Active

C[C@@H](C(=O)NC1Cc2ccccc2C1)c1ccccc1
EC50 [5]: 1340 nM
Emax [1]: 69%

CNC[C@@H](OCC(=O)N1CCCc2ccccc21)c1ccccc1
EC50 [35]: 110 nM

c1ccc(C(NCCNC(c2ccccc2)c2ccccc2)c2ccccc2)cc1
Activity [36]: Active
Activity [37]: Active
Activity [38]: Active
Activity [29]: Active
Activity [39]: 74%
EC50 [35]: 64 nM
fold change (FC) [31]: 2

O=C(Cc1ccc(Cl)cc1)NC1Cc2ccccc2C1
EC50 [5]: 156 nM
Emax [1]: 71%
